In DBAASP:
Converted amounts (≈) assume the structure as drawn. Each block holds one compound with its values, some of them ahead of it.

Columns and labels:
Test in all cases: ≥ marks a high value that may be exact or a test limit, other limits are often not marked, values filed in µg/mL are converted to µM
[1] = system: Aspergillus flavus KCTC 1375
[2] = system: Candida albicans ATCC 90028
[3] = system: Enterococcus faecium ATCC 19434
Enterococcus faecium = system: Enterococcus faecium
[4] = system: Escherichia coli O157:H7 ATCC 43895
Escherichia coli = system: Escherichia coli
[5] = system: Malassezia furfur KCTC 7744
[6] = system: Pseudomonas aeruginosa ATCC 27853
Pseudomonas aeruginosa = system: Pseudomonas aeruginosa
[7] = system: Staphylococcus aureus ATCC 25923
Staphylococcus aureus = system: Staphylococcus aureus
[8] = system: Acinetobacter baumannii ATCC 19606
Acinetobacter junii RT-4 = system: Acinetobacter junii RT-4
Bacillus megaterium Bm11 = system: Bacillus megaterium Bm11
[9] = system: Candida albicans ATCC 10231
[10] = system: Enterococcus faecalis ATCC 29212
[11] = system: Escherichia coli ATCC 25922
Escherichia coli D21 = system: Escherichia coli D21
[12] = system: Pseudomonas aeruginosa ATCC 15692
[13] = system: Pseudomonas syringae pv. tabaci 1918NCPPB
Saccharomyces cerevisiae = system: Saccharomyces cerevisiae
[14] = system: Schizosaccharomyces pombe
[15] = system: Staphylococcus aureus Cowan 1
Staphylococcus capitis 1 = system: Staphylococcus capitis 1
[16] = system: Staphylococcus epidermidis ATCC 12228
[17] = system: Streptococcus pyogenes ATCC 21547
[18] = system: Yersinia pseudotuberculosis YPIII
[19] = system: Acinetobacter sp. DSM 586
[20] = system: Arthrobacter globiformis VKM Ac-1112
[21] = system: Bacillus subtilis VKM B-501
[22] = system: Bacillus subtilis subsp. spizizenii DSM 347
[23] = system: Escherichia coli DH5alpha
[24] = system: Escherichia coli DSM 1116
Escherichia coli MH1 = system: Escherichia coli MH1
[25] = system: Pseudomonas aeruginosa PAO1
[26] = system: Saccharomyces cerevisiae Y190
[27] = system: Staphylococcus xylosus DSM 20267
[28] = system: Bacillus subtilis ATCC 62037
[29] = system: Cryptococcus neoformans ATCC 34881
[30] = system: Escherichia coli ATCC 27325
[31] = system: Pseudomonas putida ATCC 17426
[32] = system: Saccharomyces cerevisiae ATCC 44774
[33] = system: Salmonella enterica subsp. enterica serovar Enteritidis ATCC 13076
[34] = system: Staphylococcus aureus ATCC 15752
[35] = system: Streptococcus mutans ATCC 25175

MIC [1]: 10 µM (≈ 23 µg/mL)
MIC [2]: 10 µM (≈ 23 µg/mL)
MIC [3]: 10 µM (≈ 23 µg/mL)
MIC (Enterococcus faecium): 7.07 µM (≈ 16.2 µg/mL)
MIC [4]: 7.07 µM (≈ 16.2 µg/mL)
MIC (Escherichia coli): 7.07 µM (≈ 16.2 µg/mL)
MIC [5]: 10 µM (≈ 23 µg/mL)
MIC [6]: 7.07 µM (≈ 16.2 µg/mL)
MIC (Pseudomonas aeruginosa): 10 µM (≈ 23 µg/mL)
MIC [7]: 10 µM (≈ 23 µg/mL)
MIC (Staphylococcus aureus): 7.07 µM (≈ 16.2 µg/mL)
SMILES: CC(C)C[C@H](NC(=O)[C@H](C)NC(=O)[C@H](C)NC(=O)[C@H](CCCCN)NC(=O)CNC(=O)[C@@H](NC(=O)[C@H](Cc1cnc[nH]1)NC(=O)[C@H](CCCCN)NC(=O)CNC(=O)[C@@H](NC(=O)[C@H](Cc1cnc[nH]1)NC(=O)[C@H](C)NC(=O)[C@H](C)NC(=O)[C@H](CCCCN)NC(=O)[C@H](CCCCN)NC(=O)[C@H](Cc1ccccc1)NC(=O)[C@H](Cc1ccccc1)NC(=O)[C@H](CO)NC(=O)CNC(=O)[C@H](Cc1c[nH]c2ccccc12)NC(=O)CN)C(C)C)C(C)C)C(=O)N[C@H](C(N)=O)[C@@H](C)O [GWGSFFKKAAHVGKHVGKAALT]

MIC [8]: 6 µM (≈ 9.65 µg/mL)
MIC (Acinetobacter junii RT-4): 6 µM (≈ 9.65 µg/mL)
MIC (Bacillus megaterium Bm11): 1.5 µM (≈ 2.41 µg/mL)
MIC [9]: 6 µM (≈ 9.65 µg/mL)
MIC [10]: 6 µM (≈ 9.65 µg/mL)
MIC [11]: 24 µM (≈ 38.6 µg/mL)
MIC (Escherichia coli D21): 12 µM (≈ 19.3 µg/mL)
MIC [12]: 24 µM (≈ 38.6 µg/mL)
MIC [6]: > 48 µM
MIC [13]: 6 µM (≈ 9.65 µg/mL)
MIC (Saccharomyces cerevisiae): 6 µM (≈ 9.65 µg/mL)
MIC [14]: 3 µM (≈ 4.83 µg/mL)
MIC [7]: 3 µM (≈ 4.83 µg/mL)
MIC [15]: 1.5 µM (≈ 2.41 µg/mL)
MIC (Staphylococcus capitis 1): 1.5 µM (≈ 2.41 µg/mL)
MIC [16]: 1.5 µM (≈ 2.41 µg/mL)
MIC [17]: 6 µM (≈ 9.65 µg/mL)
MIC [18]: 3 µM (≈ 4.83 µg/mL)
SMILES: CC[C@H](C)[C@H](NC(=O)[C@H](CCCN=C(N)N)NC(=O)CNC(=O)[C@H](CC(C)C)NC(=O)[C@H](Cc1ccccc1)NC(=O)[C@H](CCCCN)NC(=O)[C@H](CO)NC(=O)[C@H](Cc1ccccc1)NC(=O)[C@H](Cc1c[nH]c2ccccc12)NC(=O)[C@@H]1CCCN1C(=O)[C@@H](NC(=O)[C@@H](N)Cc1ccccc1)C(C)C)C(=O)N[C@@H](CC(C)C)C(N)=O [FVPWFSKFLGRIL]

MIC [19]: 2.76 µM (≈ 8 µg/mL)
MIC [20]: 0.3 µM (≈ 0.871 µg/mL)
MIC [21]: 1.1 µM (≈ 3.19 µg/mL)
MIC [22]: 2.76 µM (≈ 8 µg/mL)
MIC [23]: 4.5 µM (≈ 13.1 µg/mL)
MIC [24]: 11 µM (≈ 32 µg/mL)
MIC (Escherichia coli MH1): 3.2 µM (≈ 9.29 µg/mL)
MIC [25]: > 35 µM
MIC [26]: 18 µM (≈ 52.2 µg/mL)
MIC [27]: 1.38 µM (≈ 4 µg/mL)
SMILES: CC[C@H](C)[C@H](NC(=O)[C@H](Cc1ccc(O)cc1)NC(=O)[C@H](CCC(N)=O)NC(=O)[C@H](CCCCN)NC(=O)[C@H](CC(C)C)NC(=O)[C@H](CCCCN)NC(=O)[C@H](CCC(=O)O)NC(=O)CNC(=O)[C@H](CCSC)NC(=O)[C@H](CO)NC(=O)[C@H](CCCCN)NC(=O)[C@H](Cc1ccccc1)NC(=O)[C@H](CCCCN)NC(=O)[C@H](CC(=O)O)NC(=O)[C@H](CCCCN)NC(=O)[C@H](CC(C)C)NC(=O)CN)C(=O)N[C@@H](CCC(N)=O)C(=O)N[C@H](C(=O)N[C@@H](Cc1c[nH]c2ccccc12)C(=O)N[C@@H](CCCCN)C(=O)N[C@@H](C)C(=O)N[C@@H](CCCCN)C(=O)N[C@@H](Cc1ccccc1)C(N)=O)[C@@H](C)O [GLKDKFKSMGEKLKQYIQTWKAKF]

MIC [28]: 0.535 µM (≈ 1.41 µg/mL)
MIC [9]: 0.379 µM (≈ 1 µg/mL)
MIC [29]: 0.379 µM (≈ 1 µg/mL)
MIC [30]: 0.268 µM (≈ 0.707 µg/mL)
MIC [31]: 0.379 µM (≈ 1 µg/mL)
MIC [32]: 0.268 µM (≈ 0.707 µg/mL)
MIC [33]: 0.535 µM (≈ 1.41 µg/mL)
MIC [34]: 0.535 µM (≈ 1.41 µg/mL)
MIC [35]: 0.535 µM (≈ 1.41 µg/mL)
SMILES: CC[C@H](C)[C@H](NC(=O)[C@@H]1CCCN1C(=O)[C@H](Cc1c[nH]c2ccccc12)NC(=O)[C@H](CCC(N)=O)NC(=O)[C@H](CCCN=C(N)N)NC(=O)[C@@H](NC(=O)[C@@H](NC(=O)[C@@H](N)CCCN=C(N)N)C(C)C)C(C)C)C(=O)NCC(=O)N[C@@H](CCCN=C(N)N)C(=O)N[C@H](C(=O)N[C@H](C(=O)N[C@@H](CCCN=C(N)N)C(=O)N[C@@H](CCCN=C(N)N)C(=O)N[C@H](C(=O)N[C@H](C(=O)N[C@@H](CCCN=C(N)N)C(=O)N[C@@H](CCCN=C(N)N)C(=O)N[C@H](C(=O)N[C@H](C(=O)N[C@@H](CCCN=C(N)N)C(=O)O)C(C)C)C(C)C)C(C)C)C(C)C)C(C)C)C(C)C [RVVRQWPIGRVVRRVVRRVVR]
